From patent US8093275B2, “Oxazolone and pyrrolidinone-substituted pryidine amides as P2X3 and P2X2/3 antagonists” (Roche Palo Alto LLC, priority 2009, dated 2012) come the findings set out here.

One test addresses T1, human P2X2/3 receptor (Homo sapiens, UniProt P56373+Q9UBL9).
T1 construct: expressed in transfected cells; host or cells: CHO-K1
T1 sequence (Q9UBL9 1-471): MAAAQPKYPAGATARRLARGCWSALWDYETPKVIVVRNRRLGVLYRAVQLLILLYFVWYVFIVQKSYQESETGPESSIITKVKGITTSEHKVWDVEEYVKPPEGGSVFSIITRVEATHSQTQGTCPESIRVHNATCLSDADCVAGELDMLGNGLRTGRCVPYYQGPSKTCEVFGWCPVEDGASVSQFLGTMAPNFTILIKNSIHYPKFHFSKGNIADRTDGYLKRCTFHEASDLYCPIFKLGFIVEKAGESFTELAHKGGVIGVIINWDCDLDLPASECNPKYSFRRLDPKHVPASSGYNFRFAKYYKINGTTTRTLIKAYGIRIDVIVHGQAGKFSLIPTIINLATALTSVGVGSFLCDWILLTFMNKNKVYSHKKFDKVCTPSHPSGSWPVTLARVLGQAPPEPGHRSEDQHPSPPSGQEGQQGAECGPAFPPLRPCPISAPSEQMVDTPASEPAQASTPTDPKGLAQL
T1 sequence (P56373 1-397): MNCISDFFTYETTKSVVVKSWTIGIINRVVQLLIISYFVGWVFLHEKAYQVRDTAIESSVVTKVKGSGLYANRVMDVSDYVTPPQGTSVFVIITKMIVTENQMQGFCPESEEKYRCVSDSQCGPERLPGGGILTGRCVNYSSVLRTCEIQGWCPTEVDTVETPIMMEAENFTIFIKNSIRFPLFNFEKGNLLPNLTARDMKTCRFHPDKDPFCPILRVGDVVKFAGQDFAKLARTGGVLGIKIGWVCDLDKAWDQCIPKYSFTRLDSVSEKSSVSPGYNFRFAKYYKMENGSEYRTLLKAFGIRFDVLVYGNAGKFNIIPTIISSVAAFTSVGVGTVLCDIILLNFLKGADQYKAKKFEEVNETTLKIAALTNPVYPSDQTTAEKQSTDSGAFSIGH
The experiment in a line: P2X2/3 FLIPR (Fluorometric Imaging Plate Reader) assay. As to conditions: CHO-K1 cells transfected with human P2X2/3; agonist α,β-meATP 5 μM; FLIPR calcium fluorescence; read-out: pKi P2X2/3 (converted). It is filed as cell-based. As for the experimental part: (§1) CHO-K1 cells were transfected with cloned rat P2X3 or human P2X2/3 receptor subunits and passaged in flasks. 18-24 hours before the FLIPR experiment, cells were released from their flasks, centrifuged, and resuspended in nutrient medium at 2.5×10^5 cells/ml. The cells were aliquoted into black-walled 96-well plates at a density of 50,000 cells/well and incubated overnight in 5% CO2 at 37° C. On the day of the experiment, cells were washed in FLIPR buffer (calcium- and magnesium-free Hank's balanced salt solution, 10 mM HEPES, 2 mM CaCl2, 2.5 mM probenecid; FB). Each well received 100 μl FB and 100 μl of the fluorescent dye Fluo-3 AM [2 μM final conc.]. After a 1 hour dye loading incubation at 37° C., the cells were washed 4 times with FB, and a final 75 μl/well FB was left in each well.
(§2) Test compounds (dissolved in DMSO at 10 mM and serially diluted with FB) or vehicle were added to each well (25 μl of a 4× solution) and allowed to equilibrate for 20 minutes at room temperature. The plates were then placed in the FLIPR and a baseline fluorescence measurement (excitation at 488 nm and emission at 510-570 nm) was obtained for 10 seconds before a 100 μl/well agonist or vehicle addition. The agonist was a 2× solution of α,β-meATP producing a final concentration of 1 μM (P2X3) or 5 μM (P2X2/3). Fluorescence was measured for an additional 2 minutes at 1 second intervals after agonist addition. A final addition of ionomycin (5 μM, final concentration) was made to each well of the FLIPR test plate to establish cell viability and maximum fluorescence of dye-bound cytosolic calcium. Peak fluorescence in response to the addition of α,β-meATP (in the absence and presence of test compounds) was measured and inhibition curves generated using nonlinear regression. PPADS, a standard P2X antagonist, was used as a positive control.

The target in another test is T2, rat P2X3 receptor (Rattus norvegicus, UniProt P49654).
T2 construct: expressed in transfected cells; host or cells: CHO-K1
T2 sequence (P49654 1-397): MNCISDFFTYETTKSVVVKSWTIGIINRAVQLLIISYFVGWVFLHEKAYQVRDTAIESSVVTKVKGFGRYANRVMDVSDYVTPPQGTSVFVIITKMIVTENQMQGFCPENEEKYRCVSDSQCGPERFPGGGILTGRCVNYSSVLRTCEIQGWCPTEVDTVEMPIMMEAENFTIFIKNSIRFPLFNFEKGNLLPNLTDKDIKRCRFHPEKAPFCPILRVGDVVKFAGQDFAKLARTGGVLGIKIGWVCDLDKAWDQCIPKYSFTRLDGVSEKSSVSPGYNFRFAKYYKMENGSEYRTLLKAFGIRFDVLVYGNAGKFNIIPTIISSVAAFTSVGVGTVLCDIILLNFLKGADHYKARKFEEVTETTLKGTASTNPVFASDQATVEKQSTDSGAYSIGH
Briefly: P2X3 FLIPR (Fluorometric Imaging Plate Reader) assay. To be noted: CHO-K1 cells transfected with rat P2X3; agonist α,β-meATP 1 μM; FLIPR calcium fluorescence; read-out: pKi P2X3 (converted). The format is cell-based. As for the experimental part:
as §1, §2

`Cc1ccc(-c2cc(C(=O)NCc3ccc(C)nn3)cc(-n3c(=O)oc4ccccc43)c2)nc1` [Compound 13, N-(6-Methyl-pyridazin-3-ylmethyl)-3-(5-methyl-pyridin-2-yl)-5-(2-oxo-benzooxazol-3-yl)-benzamide]: the Ki on human P2X2/3 receptor was 21.4 nM; at rat P2X3 receptor, 7.76 nM.

As for `Cc1ccc(-c2cc(C(=O)N[C@@H](C)CO)cc(N3C(=O)OC[C@H]3C(C)C)c2)c(F)c1` [Compound 46, 2′-Fluoro-5-((R)-4-isopropyl-2-oxo-oxazolidin-3-yl)-4′-methyl-biphenyl-3-carboxylic acid ((S)-2-hydroxy-1-methyl-ethyl)-amide], the Ki at human P2X2/3 receptor was 93.3 nM; at rat P2X3 receptor it was 2.45 nM.

As for `Cc1ccc(-c2cc(C(=O)N[C@@H](C)CO)cc(N3C(=O)OC[C@H]3C(C)C)c2)nc1` [Compound 9, N-((S)-2-Hydroxy-1-methyl-ethyl)-3-((R)-4-isopropyl-2-oxo-oxazolidin-3-yl)-5-(5-methyl-pyridin-2-yl)-benzamide], the Ki at human P2X2/3 receptor is 195 nM; on rat P2X3 receptor, 2.24 nM.

`Cc1ccc(-c2cc(C(=O)NCc3cnc(C)cn3)cc(N3C(=O)Cc4ccccc43)c2)cc1` [Compound 53, 4′-Methyl-5-(2-oxo-2,3-dihydro-indol-1-yl)-biphenyl-3-carboxylic acid (5-methyl-pyrazin-2-ylmethyl)-amide]: the Ki at human P2X2/3 receptor is 123 nM; at rat P2X3 receptor, 7.24 nM.

As for `Cc1ccc(-c2cc(C(=O)NCc3cnc(C)cn3)cc(-n3c(=O)[nH]c4cncnc43)c2)nc1` [Compound 30, N-(5-Methyl-pyrazin-2-ylmethyl)-3-(5-methyl-pyridin-2-yl)-5-(8-oxo-7,8-dihydro-purin-9-yl)-benzamide], the values for the Ki at human P2X2/3 receptor and at rat P2X3 receptor were 35.5 nM and 3.16 nM, respectively.

In the case of `Cc1ccc(-c2cc(C(=O)NCc3cnc(C)cn3)cc(N3C(=O)OCC34CC4)c2)nc1` [Compound 29, N-(5-Methyl-pyrazin-2-ylmethyl)-3-(5-methyl-pyridin-2-yl)-5-(5-oxo-6-oxa-4-aza-spiro[2.4]hept-4-yl)-benzamide], the Ki is 129 nM on human P2X2/3 receptor and 4.37 nM on rat P2X3 receptor.

As for `Cc1ccc(-c2cc(C(=O)NCc3cnc(C)nc3)cc(-n3c(=O)oc4ccccc43)c2)nc1` [Compound 33, 3-(5-Methyl-pyridin-2-yl)-N-(2-methyl-pyrimidin-5-ylmethyl)-5-(2-oxo-benzooxazol-3-yl)-benzamide], the Ki on human P2X2/3 receptor is 13.8 nM; on rat P2X3 receptor, 6.17 nM.

Regarding `Cc1ccc(-c2cc(C(=O)NCc3cnc(C)cn3)cc(N3C(=O)OC[C@H]3C(C)C)c2)c(F)c1` [Compound 48, 2′-Fluoro-5-((R)-4-isopropyl-2-oxo-oxazolidin-3-yl)-4′-methyl-biphenyl-3-carboxylic acid (5-methyl-pyrazin-2-ylmethyl)-amide], the Ki is 38 nM on human P2X2/3 receptor and 13.2 nM at rat P2X3 receptor.

`Cc1ccc(-c2cc(C(=O)NC(C)c3cnccn3)cc(N3C(=O)CCC3C)c2)nc1` (centres unmarked) [Compound 27, 3-(2-Methyl-5-oxo-pyrrolidin-1-yl)-5-(5-methyl-pyridin-2-yl)-N-(1-pyrazin-2-yl-ethyl)-benzamide]: the Ki on human P2X2/3 receptor was 7760 nM; at rat P2X3 receptor it was 38.9 nM.

As to `Cc1ccc(-c2cc(C(=O)NC3CC3)cc(N3C(=O)OC[C@H]3C(C)C)c2)nc1` [Compound 8, N-Cyclopropyl-3-((R)-4-isopropyl-2-oxo-oxazolidin-3-yl)-5-(5-methyl-pyridin-2-yl)-benzamide], the Ki was 132 nM on human P2X2/3 receptor and 2.69 nM at rat P2X3 receptor.
